Measured values as given in patent US20230146395A1, “Substituted Pyrimidines and Uses Thereof” (Verge Analytics, Inc., priority 2020, published 2023).

Tests used:
Type in all cases: biochemical
[1] = target: T1, Full length human recombinant PIKFYVE (Homo sapiens, UniProt Q9Y2I7); assay: Inhibition of PIKfyve (microfluidic electrophoresis kinase assay, PI3P/PS substrate); details: 12 concentrations
T1 construct: Full length human recombinant PIKFYVE; purchased Carna Biosciences (Kobe, Japan); host or cells: baculovirus expression system
T1 sequence (Q9Y2I7 whole entry): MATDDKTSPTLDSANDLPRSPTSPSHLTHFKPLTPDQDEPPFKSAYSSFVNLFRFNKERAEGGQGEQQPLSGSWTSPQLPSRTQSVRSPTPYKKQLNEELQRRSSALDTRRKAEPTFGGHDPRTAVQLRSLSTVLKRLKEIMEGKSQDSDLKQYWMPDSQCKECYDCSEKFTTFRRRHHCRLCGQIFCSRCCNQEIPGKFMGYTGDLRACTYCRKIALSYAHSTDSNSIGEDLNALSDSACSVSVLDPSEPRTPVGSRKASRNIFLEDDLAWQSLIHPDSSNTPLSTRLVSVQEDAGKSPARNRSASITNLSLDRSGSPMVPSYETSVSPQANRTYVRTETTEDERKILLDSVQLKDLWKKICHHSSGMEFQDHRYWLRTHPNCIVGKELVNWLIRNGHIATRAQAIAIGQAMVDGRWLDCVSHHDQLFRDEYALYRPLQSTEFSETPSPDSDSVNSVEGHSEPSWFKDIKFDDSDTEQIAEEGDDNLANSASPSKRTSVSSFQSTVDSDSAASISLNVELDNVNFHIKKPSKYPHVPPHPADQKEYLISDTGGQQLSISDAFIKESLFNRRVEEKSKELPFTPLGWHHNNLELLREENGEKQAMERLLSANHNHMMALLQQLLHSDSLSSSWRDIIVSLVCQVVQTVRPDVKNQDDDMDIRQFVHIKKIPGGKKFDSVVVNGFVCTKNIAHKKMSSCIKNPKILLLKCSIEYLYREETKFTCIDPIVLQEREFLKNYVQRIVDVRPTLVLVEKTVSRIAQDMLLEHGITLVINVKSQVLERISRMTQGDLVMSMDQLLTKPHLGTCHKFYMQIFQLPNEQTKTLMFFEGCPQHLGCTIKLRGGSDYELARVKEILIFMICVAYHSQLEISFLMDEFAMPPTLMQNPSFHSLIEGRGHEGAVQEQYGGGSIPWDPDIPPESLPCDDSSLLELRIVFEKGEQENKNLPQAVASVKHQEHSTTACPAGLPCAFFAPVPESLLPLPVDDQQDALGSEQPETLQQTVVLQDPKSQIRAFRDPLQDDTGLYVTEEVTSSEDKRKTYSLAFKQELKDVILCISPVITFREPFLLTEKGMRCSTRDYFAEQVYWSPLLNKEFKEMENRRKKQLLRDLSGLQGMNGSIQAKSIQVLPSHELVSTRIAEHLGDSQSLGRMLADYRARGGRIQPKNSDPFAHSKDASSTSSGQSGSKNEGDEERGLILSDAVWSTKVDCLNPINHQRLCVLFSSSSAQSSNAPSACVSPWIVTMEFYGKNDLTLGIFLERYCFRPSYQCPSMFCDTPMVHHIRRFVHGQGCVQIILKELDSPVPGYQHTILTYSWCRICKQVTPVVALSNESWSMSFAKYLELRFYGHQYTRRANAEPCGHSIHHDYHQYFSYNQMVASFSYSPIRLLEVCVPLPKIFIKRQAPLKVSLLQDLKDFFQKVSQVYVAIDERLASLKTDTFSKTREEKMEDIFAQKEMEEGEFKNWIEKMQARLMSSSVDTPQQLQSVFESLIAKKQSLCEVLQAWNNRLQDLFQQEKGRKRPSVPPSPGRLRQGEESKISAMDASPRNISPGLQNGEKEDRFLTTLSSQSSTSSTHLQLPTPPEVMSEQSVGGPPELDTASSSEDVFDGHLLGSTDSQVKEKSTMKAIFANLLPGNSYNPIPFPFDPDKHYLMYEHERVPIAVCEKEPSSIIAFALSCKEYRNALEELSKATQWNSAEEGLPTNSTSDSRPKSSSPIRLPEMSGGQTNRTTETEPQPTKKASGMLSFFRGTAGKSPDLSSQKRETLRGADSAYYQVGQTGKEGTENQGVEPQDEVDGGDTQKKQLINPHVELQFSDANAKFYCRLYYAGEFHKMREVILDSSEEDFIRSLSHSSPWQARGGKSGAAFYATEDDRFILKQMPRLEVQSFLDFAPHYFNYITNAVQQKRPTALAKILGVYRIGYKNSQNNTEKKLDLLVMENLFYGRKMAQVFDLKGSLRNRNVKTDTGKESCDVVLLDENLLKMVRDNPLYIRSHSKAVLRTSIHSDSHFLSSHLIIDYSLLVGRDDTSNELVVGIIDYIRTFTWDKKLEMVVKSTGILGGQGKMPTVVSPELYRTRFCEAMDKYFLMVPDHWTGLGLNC
Summary of the method: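 GST-tagged full-length human PIKFYVE (baculovirus; 2 nM) with fluorescent PI3P/PS (1 μM PI3P) and […] in pH 7.5 HEPES with Mg2+/Mn2+, 1% DMSO, 3 h at room temperature. PI(3,5)P product/substrate ratio read by microfluidic electrophoresis; 12-point % inhibition versus no-enzyme and DMSO controls.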

[2] = target: T2, PI3Kα (Homo sapiens, UniProt P42336); assay: Inhibition of PI3K isoforms: PI3Kα (microfluidic electrophoresis kinase assay, PIP2/PS substrate); details: p110α/p85α, ATP 90 μM; read-out: PI3Ka IC50
T2 construct: Full-length N-terminal; FLAG (N); host or cells: SF9 cells (baculovirus)
T2 sequence (P42336 whole entry, canonical isoform): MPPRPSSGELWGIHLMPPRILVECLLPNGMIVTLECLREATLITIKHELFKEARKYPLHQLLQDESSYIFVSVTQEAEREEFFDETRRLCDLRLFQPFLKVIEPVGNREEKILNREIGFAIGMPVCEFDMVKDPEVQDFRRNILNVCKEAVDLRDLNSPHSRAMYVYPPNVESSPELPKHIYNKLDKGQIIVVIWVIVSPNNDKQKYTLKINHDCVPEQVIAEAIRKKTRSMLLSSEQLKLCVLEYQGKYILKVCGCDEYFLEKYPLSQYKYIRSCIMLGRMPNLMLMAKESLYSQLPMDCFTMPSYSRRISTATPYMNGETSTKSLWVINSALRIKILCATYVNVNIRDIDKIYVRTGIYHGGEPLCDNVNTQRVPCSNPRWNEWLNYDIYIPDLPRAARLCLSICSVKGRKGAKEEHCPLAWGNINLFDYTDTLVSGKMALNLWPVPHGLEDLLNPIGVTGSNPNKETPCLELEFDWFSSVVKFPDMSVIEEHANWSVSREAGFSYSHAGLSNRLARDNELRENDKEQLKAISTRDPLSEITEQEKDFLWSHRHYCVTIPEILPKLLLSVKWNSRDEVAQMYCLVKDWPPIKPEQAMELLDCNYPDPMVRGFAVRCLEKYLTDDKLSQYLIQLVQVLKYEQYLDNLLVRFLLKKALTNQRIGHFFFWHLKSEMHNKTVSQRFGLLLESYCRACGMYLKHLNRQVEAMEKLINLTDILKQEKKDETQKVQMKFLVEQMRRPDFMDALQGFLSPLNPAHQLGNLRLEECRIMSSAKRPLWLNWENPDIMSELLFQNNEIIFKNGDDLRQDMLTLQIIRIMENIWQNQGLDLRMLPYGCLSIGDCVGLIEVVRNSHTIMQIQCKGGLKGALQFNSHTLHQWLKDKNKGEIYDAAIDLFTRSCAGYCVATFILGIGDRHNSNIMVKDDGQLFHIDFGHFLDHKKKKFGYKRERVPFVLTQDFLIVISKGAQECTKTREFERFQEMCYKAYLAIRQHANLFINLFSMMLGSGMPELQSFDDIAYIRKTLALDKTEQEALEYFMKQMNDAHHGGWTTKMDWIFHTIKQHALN
T2 sequence (P27986 whole entry partner, canonical isoform): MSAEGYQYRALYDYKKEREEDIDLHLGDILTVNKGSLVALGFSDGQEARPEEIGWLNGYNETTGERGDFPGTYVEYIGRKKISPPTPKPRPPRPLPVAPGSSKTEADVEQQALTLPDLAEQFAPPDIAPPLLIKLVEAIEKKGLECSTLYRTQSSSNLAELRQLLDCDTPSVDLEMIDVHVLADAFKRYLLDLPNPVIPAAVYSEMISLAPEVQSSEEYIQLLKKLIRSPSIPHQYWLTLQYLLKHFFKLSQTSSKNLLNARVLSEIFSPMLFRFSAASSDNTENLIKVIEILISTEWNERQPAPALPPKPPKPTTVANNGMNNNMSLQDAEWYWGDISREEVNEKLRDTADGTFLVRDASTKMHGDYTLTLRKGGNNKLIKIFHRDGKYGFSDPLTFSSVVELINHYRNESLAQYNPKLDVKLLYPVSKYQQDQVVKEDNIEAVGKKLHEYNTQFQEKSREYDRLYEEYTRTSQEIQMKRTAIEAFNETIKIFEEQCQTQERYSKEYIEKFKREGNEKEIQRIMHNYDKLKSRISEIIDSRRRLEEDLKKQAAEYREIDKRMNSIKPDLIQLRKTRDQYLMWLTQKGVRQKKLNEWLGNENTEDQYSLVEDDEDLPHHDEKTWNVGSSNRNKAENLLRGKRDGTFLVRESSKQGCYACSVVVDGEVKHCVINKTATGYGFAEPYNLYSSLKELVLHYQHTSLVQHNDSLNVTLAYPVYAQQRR
Protocol: The kinase substrate was prepared by mixing and sonicating fluorescently-labeled phosphatidylinositol 4,5-phosphate (PIP2) with phospho-L-serine (PS) at 1:20 ratio in 50 mM HEPES buffer pH7.5.
The kinase reactions were assembled in 384-well plates (Greiner) in a total volume of […] as follows. The kinase proteins were pre-diluted in an assay buffer comprising 50 mM HEPES, pH 7.5, 0.012% CHAPS, 1 mM DTT, 10 mM Na3VaO4, 10 mM 3-GP, 3 mM MgCl2, and 40 mM NaCl2, and dispensed into a 384-well plate (10 μL per well). Test compounds were serially pre-diluted in DMSO and added to the protein samples by acoustic dispensing (Labcyte Echo). The concentration of DMSO was equalized to 1% in all samples. All test compounds were tested at 12 concentrations. The control samples (0%-inhibition in the absence of inhibitor, DMSO only) and 100%-inhibition (in the absence of enzyme) were assembled in replicates of four and were used to calculate %-inhibition in the presence of test compounds. The reactions were initiated by addition of 10 μL of the PIP2/PS substrate supplemented with ATP. The final concentration of enzymes was 0.5 nM (PI3Kα), 1 nM (PI3Kβ), 10 nM (PI3Kγ), and 0.25 nM (PI3Kδ). The final concentration of ATP was 90 μM (PI3Kα), 60 μM (PI3Kβ), 100 μM (PI3Kγ), and 90 μM (PI3Kδ). The final concentration of PIP2/PS substrate was 1 μM (PIP2). The kinase reactions were allowed to proceed for 3 h at room temperature. Following incubation, the reactions were quenched by addition of 50 μL of termination buffer (100 mM HEPES, pH 7.5, 0.01% Triton X-100, 20 mM EDTA). Terminated plates were analyzed on a microfluidic electrophoresis instrument (Caliper LabChip® 3000, Caliper Life Sciences/Perkin Elmer). The change in the relative fluorescence intensity of the PI(4,5)P substrate and PI(3,4,5)P product peaks was measured. The activity in each test sample was determined as the product to sum ratio (PSR): P/(S+P), where P is the peak height of the product, and S is the peak height of the substrate. Percent inhibition (Pinh) was determined using the following equation:
Pinh=(PSR0% inh−PSRcompound)/(PSR0% inh−PSR100% inh)*100
in which PSRcompound is the product/sum ratio in the presence of compound, PSR0% inh is the product/sum ratio in the absence of compound, and the PSR100% inh is the product/sum ratio in the absence of the enzyme.

[3] = target: T3, PI3Kδ (Homo sapiens, UniProt O00329); assay: Inhibition of PI3K isoforms: PI3Kδ (microfluidic electrophoresis kinase assay, PIP2/PS substrate); details: p110δ/p85α, ATP 90 μM; read-out: PI3Kd IC50
T3 construct: Full-length N-terminal; GST (N); host or cells: SF9 cells (baculovirus)
T3 sequence (O00329 whole entry, canonical isoform): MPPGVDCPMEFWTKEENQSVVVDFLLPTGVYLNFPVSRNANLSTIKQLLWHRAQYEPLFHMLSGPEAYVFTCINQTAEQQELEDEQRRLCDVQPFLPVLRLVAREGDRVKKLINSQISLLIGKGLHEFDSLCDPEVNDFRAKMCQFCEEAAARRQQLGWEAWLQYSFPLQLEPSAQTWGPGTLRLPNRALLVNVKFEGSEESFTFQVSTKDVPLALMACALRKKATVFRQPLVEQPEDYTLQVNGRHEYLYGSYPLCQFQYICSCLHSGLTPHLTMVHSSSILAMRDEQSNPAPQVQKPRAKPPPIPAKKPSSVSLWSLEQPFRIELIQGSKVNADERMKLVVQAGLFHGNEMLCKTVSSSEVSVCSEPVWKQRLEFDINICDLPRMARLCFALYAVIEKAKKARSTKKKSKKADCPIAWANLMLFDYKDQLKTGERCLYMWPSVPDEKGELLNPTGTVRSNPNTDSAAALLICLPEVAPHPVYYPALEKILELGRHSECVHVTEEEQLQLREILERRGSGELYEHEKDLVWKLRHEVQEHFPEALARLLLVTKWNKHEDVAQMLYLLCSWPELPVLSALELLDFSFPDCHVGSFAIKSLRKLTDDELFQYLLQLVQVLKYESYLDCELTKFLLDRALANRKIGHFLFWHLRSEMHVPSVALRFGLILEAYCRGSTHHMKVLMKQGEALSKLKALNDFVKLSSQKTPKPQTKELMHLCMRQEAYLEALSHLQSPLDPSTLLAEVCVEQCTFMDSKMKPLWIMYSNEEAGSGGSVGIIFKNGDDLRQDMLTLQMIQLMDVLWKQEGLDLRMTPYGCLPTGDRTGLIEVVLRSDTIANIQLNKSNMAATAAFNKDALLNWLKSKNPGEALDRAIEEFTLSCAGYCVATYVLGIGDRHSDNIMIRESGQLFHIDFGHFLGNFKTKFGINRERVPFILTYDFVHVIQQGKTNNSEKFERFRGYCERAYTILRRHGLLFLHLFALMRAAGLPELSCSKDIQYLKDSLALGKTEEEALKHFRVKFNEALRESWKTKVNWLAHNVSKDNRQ
T3 sequence (P27986 whole entry partner, canonical isoform): as the sequence (P27986 whole entry partner, canonical isoform) above
Protocol: The kinase substrate was prepared by mixing and sonicating fluorescently-labeled phosphatidylinositol 4,5-phosphate (PIP2) with phospho-L-[…]:20 ratio in 50 mM HEPES buffer pH7.5. The kinase reactions were assembled in 384-well plates (Greiner) in a total volume of […] as follows. The kinase proteins were pre-diluted in an assay buffer comprising 50 mM HEPES, pH 7.5, 0.012% CHAPS, 1 mM DTT, 10 mM Na3VaO4, 10 mM 3-GP, 3 mM MgCl2, and 40 mM NaCl2, and dispensed into a 384-well plate (10 μL per well). Test compounds were serially pre-diluted in DMSO and added to the protein samples by acoustic dispensing (Labcyte Echo). The concentration of DMSO was equalized to 1% in all samples. All test compounds were tested at 12 concentrations. The control samples (0%-inhibition in the absence of inhibitor, DMSO only) and 100%-inhibition (in the absence of enzyme) were assembled in replicates of four and were used to calculate %-inhibition in the presence of test compounds. The reactions were initiated by addition of 10 μL of the PIP2/PS substrate supplemented with ATP. The final concentration of enzymes was 0.5 nM (PI3Kα), 1 nM (PI3Kβ), 10 nM (PI3Kγ), and 0.25 nM (PI3Kδ). The final concentration of ATP was 90 μM (PI3Kα), 60 μM (PI3Kβ), 100 μM (PI3Kγ), and 90 μM (PI3Kδ). The final concentration of PIP2/PS substrate was 1 μM (PIP2). The kinase reactions were allowed to proceed for 3 h at room temperature. Following incubation, the reactions were quenched by addition of 50 μL of termination buffer (100 mM HEPES, pH 7.5, 0.01% Triton X-100, 20 mM EDTA). Terminated plates were analyzed on a microfluidic electrophoresis instrument (Caliper LabChip® 3000, Caliper Life Sciences/Perkin Elmer). The change in the relative fluorescence intensity of the PI(4,5)P substrate and PI(3,4,5)P product peaks was measured. The activity in each test sample was determined as the product to sum ratio (PSR): P/(S+P), where P is the peak height of the product, and S is the peak height of the substrate. Percent inhibition (Pinh) was determined using the following equation: Pinh=(PSR0% inh-PSRcompound)/(PSR0% inh-PSR100% inh)*100 in which PSRcompound is the product/sum ratio in the presence of compound, PSR0% inh is the product/sum ratio in the absence of compound, and the PSR100% inh is the product/sum ratio in the absence of the enzyme. […] (Pinh versus compound concentration) were fitted by a four-parameter sigmoid dose-response model using XLfit software (IDBS).

SMILES | IC50 [1] | IC50 [2] | IC50 [3]
CNC(=O)c1cc2nc(Nc3cc(C4CCC4)n[nH]3)nc(N3CCOCC3)c2o1 [Compound 80, 2-((5-cyclobutyl-1H-pyrazol-3-yl)amino)-N-methyl-4-morpholinofuro[3,2-d]pyrimidine-6-carboxamide, hydrogen chloride] | 5.5 µM | 5.52 µM | 454 nM
CCc1cc(Nc2nc(N3CCOCC3)c3oc(C(=O)NC)cc3n2)[nH]n1 [Compound 87, 2-((5-ethyl-1H-pyrazol-3-yl)amino)-N-methyl-4-morpholinofuro[3,2-d]pyrimidine-6-carboxamide, hydrogen chloride] | ≥ 20 µM | 3.48 µM | 
CNC(=O)c1cc2nc(Nc3cc(CC4CCCC4)n[nH]3)nc(N3CCOCC3)c2o1 [Compound 84, 2-((5-(cyclopentylmethyl)-1H-pyrazol-3-yl)amino)-N-methyl-4-morpholinofuro[3,2-d]pyrimidine-6-carboxamide, hydrogen chloride] | ≥ 20 µM | 4.53 µM | 218 nM
CNC(=O)c1cc2nc(Nc3cc(C4CCCC4)n[nH]3)nc(N3CCOCC3)c2o1 [Compound 83, 2-((5-cyclopentyl-1H-pyrazol-3-yl)amino)-N-methyl-4-morpholinofuro[3,2-d]pyrimidine-6-carboxamide, hydrogen chloride] | 4.09 µM | 3.72 µM | 
c1cc(-c2cc3nc(Nc4cc(C5CCC5)n[nH]4)nc(N4CCOCC4)c3o2)ccn1 [Compound 70, N-(5-cyclobutyl-1H-pyrazol-3-yl)-4-morpholino-6-(pyridin-4-yl)furo[3,2-d]pyrimidin-2-amine, hydrogen chloride] | 0.142 µM | 4.14 µM | 164 nM
